Test results from US11944612B2, “Dosing regimens for 2-hydroxy-6-((2-(1-isopropyl-1H-pyrazol-5-yl)pyridin-3-yl)methoxy)benzaldehyde” (Global Blood Therapeutics, Inc., priority 2015, dated 2024).

Key:
[1] = Phase I study: whole blood and plasma pharmacokinetics of GBT440 (LC-MS-MS); format: in vivo, human; conditions: for half-life: human, whole blood, oral
Protocol: (§1) The following example presents a Phase I randomised, placebo-controlled, double-blind, single and multiple ascending dose study of the tolerability and pharmacokinetics of Compound 1 (GBT440) in healthy subjects and patients with Sickle Cell Disease.
(§2) Experimental: GBT440 • Subjects randomized 6:2 to receive daily oral dosing of GBT440 or placebo for 1 day (single dose) and up to 28 days (multiple dose)
Analysis of whole blood was performed as follows. 50 μL of diluted whole blood was mixed with 20 μL of GBT1592 (GBT440-D7) solution in acetonitrile. 0.3 mL of 0.1M citrate buffer solution (pH 3) was added to the sample, and the sample mixed briefly by vortexing, followed by sonication for 10 minutes. 2.0 mL methyl tert butyl ether (MTBE) was added to the sample, and the sample was capped, and mixed thoroughly by vortexing at high speed for 20 minutes. The sample was then centrifuged at 3300 rpm at room temperature for 10 minutes. 0.2 mL of the clear organic layer of the centrifuged sample was then transferred to a clean 96-well 2-mL plate, and the solvent was evaporated to dryness. […] The resultant reconstituted extract was analyzed by liquid chromatography mass spectrometry (LCMS).
For the LCMS, a Sciex API 4000 LC-MS-MS was equipped with an HPLC column. The peak area of the m/z 338.1→158.1 GBT440 product ion was measured against the peak area of the m/z 345.2→159.1 GBT1592 (GBT440-D7) internal standard product ion.
The whole blood samples, obtained as described above, were analyzed for pharmacokinetic parameters and RBC:Plasma ratios, as follows.
Terminal half-life and other pharmacokinetic parameters were calculated using Phoenix WinNonlin software. Apparent terminal half-life (t1/2) values were calculated as ln(2)/k, where k is the terminal elimination rate constant which is obtained by performing a linear regression on the terminal phase of a plot of the natural logarithm (ln) of concentration versus time.
RBC:Plasma ratio was calculated using the equation below. […]

[2] = target: T1, hemoglobin (Homo sapiens, UniProt P68871+P69905, E7V); experiment: Whole blood hemoximetry (oxygen equilibrium curves, % Hb modification); format: in vivo; conditions: 500 mg
T1 construct: from tissue; host or cells: whole blood (red blood cells) of study subjects
Protocol: Whole blood hemoximetry was used to measure oxygen equilibration. Blood from healthy volunteers and sickle cell disease (SCD) patients was drawn into 1.8 mL sodium citrate tubes. These samples were stored overnight at 4° C. prior to hemoximetry measurements. Based upon the hematocrit of the blood, either 50 μL or 100 μL of blood was diluted into 5 mL of 37° C. TES buffer (30 mM TES, 130 mM NaCl, 5 mM KCl, pH 7.4 at 25° C.). Diluted sample were loaded into TCS Hemox Analyzer cuvettes and oxygenated for twenty minutes using compressed air. After oxygenation, the samples were deoxygenated using nitrogen gas until the pO2 reached 1.6 millimeters of mercury (mm Hg). Data during this deoxygenation step was collected into Oxygen Equilibrium Curve (OEC) files using the TCS Hemox Analytical Software (HAS). OEC files were then analyzed to obtain the p50 (the partial pressure of oxygen at which 50% of hemoglobin in a sample is saturated with O2) and the p20 (the partial pressure of oxygen at which 20% of hemoglobin in a sample is saturated with O2). Delta p20 values (p20predose−p20sample time) were then used to calculate the % Hb Modification.

[3] = Phase I study: hemolysis measures / response parameters in subjects with SCD; format: in vivo, human
Excerpt: as §1
Other Outcome Measures: • Percentage of sickled cells under ex vivo conditions [Time Frame: 30 days] • Effect of GBT440 on hemolysis as measured by LDH, direct bilirubin, hemoglobin, and reticulocyte count [Time Frame: 30 days] • Change from baseline in pain as measured by visual analog scale [Time Frame: 30 days] • Change from baseline in fatigue as measured by questionnaire [Time Frame: 30 days] • Exercise capacity as measured by 6-minute walk test [Time Frame: 30 days]
as §2
Inclusion Criteria: • Healthy male or female of non-child bearing potential; 18 to 55 years old; are non-smokers and have not used nicotine products within 3 months prior to screening. • Male or female, 18 to 60 years old, with sickle cell disease (hemoglobin SS) not requiring chronic blood transfusion therapy; without hospitalization in 30 days before screening or receiving blood transfusion within 30 days before screening; subjects are allowed concomitant use of hydroxyurea if the dose has been stable for the 3 months prior to screening. […]

[4] = tested on: sickle cells; experiment: Irreversibly sickled cells counted in peripheral blood smears; format: in vivo, human
Excerpt: To quantify irreversibly sickled cells (ISCs), six different fields were randomly selected and imaged at 40× magnification per slide. Each field contained 100 to 300 cells and >500 cells (in 3 or more fields) were counted per blood smear slide. Cells that were classically sickled shape or appeared linear (with length equal to or more than 3× the width) with irregular or pointed edges were counted as sickled. Elliptical red blood cells (also appearing linear but with length approximately twice the width) with smooth rounded edges were counted as normal. In general, isolated non-discoid cells with spiky turns were counted as sickled.
Morphological criteria for sickle cells included the following categories: (1) non-discoid irregular shaped cells with irregular or pointed edges; (2) elliptocytes with length more than twice the width and with irregular or pointed edges; and (3) irregular shaped elliptocytes.

[5] = target: hemoglobin (Homo sapiens, UniProt P68871+P69905); conditions: in vitro and in vivo; cited from earlier work
[6] = 500 mg (Cohort 12), n = 10, subjects with SCD
[7] = 700 mg (Cohort 11), n = 12, subjects with SCD
[8] = 1000 mg (500 mg twice daily, Cohort 14), n = 5, subjects with SCD

SMILES: CC(C)n1nccc1-c1ncccc1COc1cccc(O)c1C=O [Compound 1, 2-hydroxy-6-((2-(1-isopropyl-1h-pyrazol-5-yl)pyridin-3-yl)methoxy)benzaldehyde]
- half-life ([1]; SCD subjects): ~38.4 h
- half-life ([1]; healthy subjects): ~72 h
- increase in GBT440 with dose ([1]; single and multiple dosing): dose proportional increase
- hemoglobin modification ([2]; 700 mg (FIG. 3)): proportional to dose
- shift of the oxygen equilibrium curve ([2]; 700 mg vs placebo, SCD subjects (FIG. 3)): left shift of the oxygen equilibrium curve
- Hemoglobin, change from baseline to Day 28, median [3, 6]: 0.4 g/dL
- Lactate dehydrogenase, change from baseline to Day 28, median [3, 6]: −19.8%
- Reticulocytes, change from baseline to Day 28, median [3, 6]: −31.2%
- Unconjugated bilirubin, change from baseline to Day 28, median [3, 6]: −30.6%
- change in hemoglobin over time ([3]; 500 mg, 700 mg vs placebo (FIG. 4)): rapid and progressive rise in hemoglobin levels
- percent change in reticulocytes over time ([3]; 500 mg, 700 mg vs placebo (FIG. 5)): profound decline in reticulocytes
- Hemoglobin, change from baseline to Day 28, median [3, 7]: 0.7 g/dL
- Lactate dehydrogenase, change from baseline to Day 28, median [3, 7]: −11.9%
- Reticulocytes, change from baseline to Day 28, median [3, 7]: −37.0%
- Unconjugated bilirubin, change from baseline to Day 28, median [3, 7]: −42.6%
- hemoglobin response, higher dose level compared to lower ([3]; 700 mg compared to 500 mg (FIG. 4)): trend for a better response
- Hemoglobin, change from baseline to Day 28, median [3, 8]: 0.0 g/dL
- Lactate dehydrogenase, change from baseline to Day 28, median [3, 8]: −12.4%
- Reticulocytes, change from baseline to Day 28, median [3, 8]: −49.9%
- Unconjugated bilirubin, change from baseline to Day 28, median [3, 8]: −56.3%
- reticulocyte counts versus exposure ([3]; higher GBT440 exposures, day 28 (FIG. 8)): more profound reduction in reticulocyte counts
- hematologic response by Hb occupancy ([3]; participants who achieved >20% Hb occupancy compared to those who did not): improved hematologic response
- Irreversibly sickled cells, change from baseline to Day 28, median [4, 6]: −56.4%
- percent sickle cells over time ([4]; 500 mg, 700 mg vs placebo, 28 day dosing period (FIG. 6)): reduced sickle cells in the peripheral blood
- Irreversibly sickled cells, change from baseline to Day 28, median [4, 7]: −45.9%
- Irreversibly sickled cells, change from baseline to Day 28, median [4, 8]: −45.7%
- sickle cells in peripheral blood smears ([4]; subject treated with 700 mg, day 1 vs day 28 (FIGS. 7A-7B)): marked reduction in sickle cells

SMILES: O=Cc1ccc(CO)o1 [Compound 5HMF, 5-hydroxymethyl-2-furfuraldehyde]
- hemoglobin modulation [5]: potent hemoglobin modulator both in vitro and in vivo
